Data as given in US6900187B2, “TRPM-2 antisense therapy using an oligonucleotide having 2′-O-(2-methoxy)ethyl modifications” (The University of British Columbia, priority 1999, dated 2005).
Read-outs that look alike come from different tables or passages of the source.

Assays:
human RCC CaKi-2 cells = assay: MTT assay of CaKi-2 cell growth, ODN plus taxol; type: cell-based; settings: CAKI-2, CaKi-2 cells
Protocol: (§1) Immunohistochemical staining was used to characterize TRPM-2 expression in 17 RCC and normal kidney tissues obtained from radical nephrectomy specimens. TRPM-2 expression in human renal cancer cell lines ACHN, CaKi-1 and CaKi-2 was evaluated by Northern and Western blot analyses. Northern blot analysis was used to assess changes in TRPM-2 mRNA expression after antisense TRPM-2 ODN treatment. The effects of combined antisense TRPM-2 ODN and taxol treatment on CaKi-2 cell growth was examined using a MTT assay (Zellweger et al., Neoplasia 3: 360-367 (2001)).

human TRPM-2 mRNA = assay: TRPM-2 mRNA expression in PC-3 and TRPM-2 transfected LNCaP cells; type: cell-based
Protocol: The sequences of these ten ODNs are set forth in the attached Sequence Listing as Seq. ID. Nos. 3-12. The ten human antisense ODNs were evaluated using TRPM-2 transfected LNCaP cells and human prostate cancer PC-3 cells for their ability to inhibit expression of TRPM-2 mRNA. […] ID Nos. 4, 5, and 12. Sequence ID No. 5 corresponds to the sequence used by Sensibar, et al. that produced inhibition of TRPM-2 expression in LNCaP cells, and is complementary to the first 21 bases of the TRPM-2 mRNA. […] ID No. 4. Common to all of the effective sequences is an overlap with either the initiation or termination sites of the TRPM-2 mRNA. Thus, it was shown that inhibition of expression of TRPM-2 may be accomplished by the administration of antisense ODNs, particularly antisense ODNs which are complementary to a region of the TRPM-2 mRNA spanning either the translation initiation site or the termination site.
To identify appropriate antisense TRPM-2 ODN sequences for use in human therapy, antisense ODN sequences directed against 10 different sites of the human TRPM-2 gene (FIG. 2, Seq. ID Nos. 3-12) were synthesized and tested for their ability to decrease TRPM-2 gene expression in human prostate cancer PC-3 and transfected LNCaP cells that overexpress TRPM-2 using the same treatment protocol described in Example 2. As shown, sequences 4, 5 and 12 are active for reduction of TRPM-2 expression. These three sequences overlap or are immediately adjacent to the translation initiation or termination sites.

Shionogi cells = assay: Viability of Shionogi cells treated with chemotherapy agent plus ODN; type: cell-based, mouse; settings: antisense Bcl-2 ODN added to antisense TRPM-2 ODN and taxol
Protocol: Shionogi cells maintained in vitro were treated with varying amounts of taxol alone or in combination with 500 nM antisense TRPM-2 ODN (Seq. ID. No. 1) or the mismatch control (Seq. ID No. 2). The cells were treated twice, as described in Example 2, and the percentage of viable cells remaining was determined. As shown, the inclusion of antisense TRPM-2 ODN shifted the dose-response curve to the left, lowering the IC50 by a factor of 5 to 10.
The experiment of Example 3 was repeated, with the addition of antisense Bcl-2 ODN (Seq. ID. No. 13) or a mismatch Bcl-2 ODN (Seq. ID. No. 14) in various combinations with antisense/mismatch TRPM-2 ODN and taxol. […] Thus, the targeting of additional anti-apoptotic agents appears to provide therapeutic benefits.

TRPM-2 = settings: cited from earlier work
[1] = Side effects in Shionogi tumor mice; type: in vivo, mouse; settings: 12.5 mg/kg i.p. once daily for 40 days
Protocol: Mice were randomly selected for treatment with murine phosphorothioate antisense TRPM-2 ODN (Seq. ID No. 1) or a mismatch control (Seq. ID No. 2) which is two bases different in sequence from the antisense TRPM-2 ODN. Each experimental group consisted of 7 mice. One day after castration, 12.5 mg/kg of antisense TRPM-2 or mismatch control ODN dissolved in phosphate buffered saline were injected intraperitoneally once daily into each mouse of 40 days. Tumor volume was measured twice weekly, and calculated by the formula length×width×depth×0.5236. Gleave et al., Cancer Res. 52: 1598-1605 (1992). Data points were reported as average tumor volumes±standard deviation.

TRPM-2 mRNA [2] = assay: Northern blot of TRPM-2 expression in CaKi-2 cells; type: cell-based, human
Protocol: as §1

TRPM-2 mRNA [3] = assay: Northern blot of TRPM-2 mRNA in Shionogi tumor cells in vitro; type: cell-based, mouse; settings: varying ODN concentrations with lipofectin, treated twice over two days
Protocol: The sequence selectivity of the antisense TRPM-2 ODN (Seq. ID. No. 1) was confirmed by comparing expression levels of TRPM-2 mRNA in Shionogi tumor cells maintained in vitro, after treatment with the varying levels of antisense TRPM-2 ODN or a mismatch control (Seq. ID. No. 2). To facilitate uptake of the ODNs into the cells, the ODNs were formulated in a cationic lipid carrier (Lipofectin, (Life Technologies, Inc.)). Cells were treated twice over a period of two days using the following protocol. Cells were preincubated for 20 minutes with 4 μg/ml of lipofectin in serum free OPTI-MEM (Life Technologies, Inc.) and then incubated with the medium containing the selected concentration of ODN and lipofectin for four hours. The medium was then replaced with the standard culture medium.
The amount of TRPM-2 mRNA in the cells was evaluated using Northern blot analysis. […] In contrast, TRPM-2 mRNA levels were not affected by the mismatch ODN (Seq. ID. No. 2) at any of the employed concentrations. Thus, the affect of antisense TRPM-2 ODN is apparently sequence specific.

Molecule: CC(=O)O[C@H]1C(=O)[C@@]2(C)[C@H]([C@H](OC(=O)c3ccccc3)[C@]3(O)C[C@H](OC(=O)[C@H](O)[C@@H](NC(=O)c4ccccc4)c4ccccc4)C(C)=C1C3(C)C)[C@]1(OC(C)=O)CO[C@@H]1C[C@@H]2O [taxol]
- IC50 (human RCC CaKi-2 cells; with antisense TRPM-2 ODN): 50 nM
- IC50 (human RCC CaKi-2 cells; with mismatch control ODN): 500 nM

Molecule: Seq. ID No. 5: human antisense phosphorothioate ODN complementary to the first 21 bases of the TRPM-2 mRNA (ATTGTCTGAGACCGTCTGGTC; DNA, all phosphorothioate, methylation of C not given here)
- inhibition of TRPM-2 mRNA expression (human TRPM-2 mRNA): best results
- inhibition of TRPM-2 mRNA expression (human TRPM-2 mRNA; listed as 5): active

Molecule: Seq. ID No. 12: human antisense phosphorothioate ODN overlapping or adjacent to translation initiation or termination site of TRPM-2 mRNA (GCTGGGCGGAGTTGGGGGCCT; DNA, all phosphorothioate, methylation of C not given here)
- inhibition of TRPM-2 mRNA expression (human TRPM-2 mRNA): best results
- inhibition of TRPM-2 mRNA expression (human TRPM-2 mRNA; listed as 12): active

Molecule: antisense Bcl-2 ODN: antisense Bcl-2 ODN (Seq. ID. No. 13) (antisense TCTCCCGGCTTGCGCCAT; listed as DNA, chemistry not given here)
- cytotoxic effects of taxol in combination with antisense TRPM-2 ODN and antisense Bcl-2 ODN (Shionogi cells): further enhanced the cytotoxic effects of taxol

Molecule: antisense molecule corresponding to the bases 1-21 of the TRPM-2 sequence: antisense molecule of Sensibar et al.; Seq. ID No. 5 corresponds to its sequence (antisense ATTGTCTGAGACCGTCTGGTC; listed as DNA, chemistry not given here)
- apoptotic cell death (TRPM-2; LNCaP cells exposed to TNFα): increase in apoptotic cell death
- expression of TRPM-2 (TRPM-2; transfected LNCaP cells): substantial reduction in expression of TRPM-2

Molecule: mismatch control ODN: mismatch control two bases different in sequence from the antisense TRPM-2 ODN (DNA GCACAGCAGCAGGATCTTCAT; DNA, backbone and methylation of C not given here)
- side effects [1]: No side effects
- TRPM-2 expression in CaKi-2 cells (TRPM-2 mRNA [2]): not
- TRPM-2 mRNA levels in Shionogi cells (TRPM-2 mRNA [3]): not affected
